Here are results for four compounds from ChEMBL document CHEMBL1130564, “The dipeptide neurokinin-1 receptor antagonist S19752 is a potent and long-acting inhibitor of bronchoconstriction when administered by aerosol to the guinea pig in vivo” (Bioorg Med Chem Lett, 1997).

In general, Ki refers to a dissociation constant, usually derived from enzyme kinetics or from competition with a known ligand. In general, pA2 refers to the negative logarithm of the molar antagonist concentration that doubles the agonist concentration needed for the same response. A low value points to a weaker antagonist.

Test [1] concerns the target T1, Substance-K receptor (Homo sapiens, UniProt P21452).
T1 sequence (P21452 whole entry): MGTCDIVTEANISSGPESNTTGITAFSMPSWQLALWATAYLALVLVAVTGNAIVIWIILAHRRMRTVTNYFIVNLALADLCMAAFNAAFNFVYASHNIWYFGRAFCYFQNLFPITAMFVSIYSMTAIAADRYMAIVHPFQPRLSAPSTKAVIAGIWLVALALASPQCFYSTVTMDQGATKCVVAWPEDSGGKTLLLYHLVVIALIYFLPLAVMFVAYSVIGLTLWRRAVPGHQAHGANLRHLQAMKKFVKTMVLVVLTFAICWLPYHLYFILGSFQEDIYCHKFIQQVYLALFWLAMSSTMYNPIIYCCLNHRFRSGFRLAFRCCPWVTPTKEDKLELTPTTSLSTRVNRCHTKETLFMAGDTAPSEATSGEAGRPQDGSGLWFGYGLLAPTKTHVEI
The test can be described thus: Binding affinity for NK-2 receptor was determined in a radioligand binding assay using chinese hamster ovary cells. It is filed as cell-based.

The target in test [2] is T2, Substance-K receptor (Oryctolagus cuniculus, UniProt P79218).
T2 sequence (P79218 whole entry): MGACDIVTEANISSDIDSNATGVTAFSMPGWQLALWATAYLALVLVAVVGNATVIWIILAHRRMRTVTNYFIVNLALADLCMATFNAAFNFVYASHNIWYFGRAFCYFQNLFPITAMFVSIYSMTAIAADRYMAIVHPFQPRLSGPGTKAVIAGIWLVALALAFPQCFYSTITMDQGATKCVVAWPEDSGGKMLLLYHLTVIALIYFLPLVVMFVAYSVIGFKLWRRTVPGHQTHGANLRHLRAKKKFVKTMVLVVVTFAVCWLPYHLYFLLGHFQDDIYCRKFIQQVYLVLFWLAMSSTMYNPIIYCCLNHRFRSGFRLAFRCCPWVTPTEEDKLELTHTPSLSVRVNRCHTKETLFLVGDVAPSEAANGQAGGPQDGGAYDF
The test can be described thus: […] for NK-2 receptor was determined in vitro using isolated rabbit pulmonary artery.

For test [3], the target named is T3, Neuromedin-K receptor (Rattus norvegicus, UniProt P16177).
T3 sequence (P16177 whole entry): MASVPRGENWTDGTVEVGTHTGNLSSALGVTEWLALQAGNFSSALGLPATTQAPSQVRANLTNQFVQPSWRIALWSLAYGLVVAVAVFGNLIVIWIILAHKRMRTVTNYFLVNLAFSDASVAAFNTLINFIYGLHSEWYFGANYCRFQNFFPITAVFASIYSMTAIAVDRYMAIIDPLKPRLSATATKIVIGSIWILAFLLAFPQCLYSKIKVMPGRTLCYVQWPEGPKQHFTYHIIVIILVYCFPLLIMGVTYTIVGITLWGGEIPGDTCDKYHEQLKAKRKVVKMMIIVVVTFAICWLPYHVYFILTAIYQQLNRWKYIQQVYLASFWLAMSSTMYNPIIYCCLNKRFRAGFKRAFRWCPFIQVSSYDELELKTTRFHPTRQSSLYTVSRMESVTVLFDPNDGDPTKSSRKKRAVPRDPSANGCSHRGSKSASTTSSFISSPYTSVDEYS
The test can be described thus: […] for NK-3 receptor was determined in vitro using isolated rat portal vein.

For test [4], the species on record is Cavia porcellus. Kind of test: Inhibition of capsaicin-induced plasma extravasation in guinea pig bronchi. It is filed as functional.
In another test the target is Substance-P receptor (Homo sapiens, UniProt P25103). Kind of test: Binding affinity for NK-1 receptor was determined in a radioligand binding assay using IM9 human lymphoblastoma cell line.
The subject of test [5] is Cavia porcellus. The test can be described thus: Tested for the ability to inhibit substance P induced bronchoconstriction in guinea pig and the dose that was effective even after 40 minutes of compound administration, was reported. The test is classed as functional.
In test [6] the test system is Cavia porcellus. Kind of test: Tested for the ability to inhibit substance P induced bronchoconstriction, in guinea pig, after intravenous administration. The inhibitory dose at 3 minutes, was reported. The test is classed as functional. The following applies: 0.05 h, read-out: ID50 (the source's name).
For test [7], the target named is T3, Neuromedin-K receptor. Kind of test: Antagonistic potency for NK-3 receptor was determined in vitro, using isolated rat portal vein. The test is classed as functional. The note with it: read-out: pA2 (converted).
In test [8] the target is T2, Substance-K receptor. Kind of test: Antagonistic potency for NK-2 receptor was determined in vitro, using isolated rabbit pulmonary artery. The note with it: read-out: pA2 (converted). It is filed as functional.

Substance-P receptor, sequence (P25103 whole entry): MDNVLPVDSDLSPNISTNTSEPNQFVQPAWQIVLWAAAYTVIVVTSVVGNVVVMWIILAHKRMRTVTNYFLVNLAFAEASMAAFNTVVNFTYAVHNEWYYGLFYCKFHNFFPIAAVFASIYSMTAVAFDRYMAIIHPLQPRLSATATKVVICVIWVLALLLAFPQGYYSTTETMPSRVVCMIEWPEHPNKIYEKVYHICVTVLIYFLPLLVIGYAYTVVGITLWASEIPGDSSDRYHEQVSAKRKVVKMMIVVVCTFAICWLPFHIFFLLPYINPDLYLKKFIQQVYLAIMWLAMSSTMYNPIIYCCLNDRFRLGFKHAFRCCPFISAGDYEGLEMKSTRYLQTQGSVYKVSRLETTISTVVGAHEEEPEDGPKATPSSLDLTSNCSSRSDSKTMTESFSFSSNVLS

`CN(Cc1ccccc1)C(=O)[C@H](Cc1ccc2ccccc2c1)NC(=O)[C@H]1C[C@H](O)CN1C(=O)c1cn(CCCCc2nnn[nH]2)c2ccccc12` showed a Ki at Substance-K receptor [1] of 2.4 µM. Besides, the pA2 on Substance-K receptor [2] was 5.6; at Neuromedin-K receptor [3], 5.

As for `O=C(OCc1cc(C(F)(F)F)cc(C(F)(F)F)c1)[C@H](Cc1c[nH]c2ccccc12)NC(=O)[C@H]1C[C@H](O)CN1C(=O)c1cn(CCCCc2nnn[n-]2)c2ccccc12.[K+]`, the Effective dose in the test filed under Cavia porcellus [4] stood at 0.026 mg/kg; with Cavia porcellus [5] it was 0.5 mM. Further, the Ki amounted to 0.0024 µM on Substance-P receptor and 4.2 µM on Substance-K receptor [1]. Further, in the test with Cavia porcellus [6], the ED50 stood at 0.05 µmol/kg. Besides, the pA2 came to 5.2 on Substance-K receptor [2] and 5.5 at Neuromedin-K receptor [3].

For the compound `COc1ccccc1CN[C@H]1CCCN[C@H]1c1ccccc1` [CP-99994], the ED50 in the test listed under Cavia porcellus [4] (read-out: ID50 (the source's name)) is 0.014 mg/kg. In addition, the Kb at Neuromedin-K receptor [7] and on Substance-K receptor [8] was more than 100 µM throughout.

With `CC(=O)N[C@@H](Cc1c[nH]c2ccccc12)C(=O)OCc1cc(C(F)(F)F)cc(C(F)(F)F)c1` [L-732138], the Kb at Neuromedin-K receptor [7] and on Substance-K receptor [8] was 6.31 µM in each case.
